The record followed here is patent publication US8039454B2, “Macrolide compounds with antibiotic and antineoplastic properties” (Weihe Pharmaceuticals Co. Ltd., priority 2006, dated 2011).

One may read the MIC as the least concentration at which growth counts as inhibited. A higher MIC goes with weaker potency.

Structures are written as SMILES. ≈ marks a conversion by molar mass, not a printed value. Where only a bound is given, the exact number is not on record here.

Common to all, as to assay: MIC by standard dilution method in Tryptic Soy Broth
Type in all cases: cell-based

The subject of one assay is Enterococcus faecalis. To be noted: 35° C., 24 h incubation. The protocol:
(§1) To determine minimum inhibitory concentration (MIC) of the WBI-3001, the standard dilution method was used. The tests were conducted at 35° C. and the MICs were determined after 24 h incubation.

For assay [1], the system named is Staphylococcus epidermidis. The conditions noted are these: 35° C., 24 h incubation. The method, then: as §1
Assay [2] has as its system S. aureus MSRA (clinical isolates of methicillin-resistant strain). The conditions noted are these: Staphylococcus aureus, 24 h. The method, then: as §1
In a further assay the test system is Pseudomonas aeruginosa. The conditions noted are these: 35° C., 24 h incubation. The protocol: as §1
A further assay concerns Escherichia coli. To be noted: 35° C., 24 h incubation. The method, then: as §1
In the next assay the test system is Streptococcus pyogenes. To be noted: 35° C., 24 h incubation. The method, then: as §1

For `CC[C@H]1OC(=O)[C@H](C)[C@@H](O[C@H]2C[C@@](C)(OC)[C@@H](O)[C@H](C)O2)[C@H](C)[C@@H](O[C@@H]2O[C@H](C)C[C@H](N(C)C)[C@H]2O)[C@](C)(O)C[C@@H](C)C(=O)[C@H](C)[C@@H](O)[C@]1(C)O` [Erythromycin], the MIC against Enterococcus faecalis was greater than 32 µg/mL; in assay [1], 0.25 µg/mL (≈ 0.341 µM); in assay [2] it was greater than 32 µg/mL; against Pseudomonas aeruginosa it was greater than 32 µg/mL; in the assay on Escherichia coli it was 1 µg/mL (≈ 1.36 µM); against Streptococcus pyogenes it was 0.03 µg/mL (≈ 0.0409 µM).
